Where a SMILES comes first, the peptide text is derived from it. [ ]: non-standard residue; d: D form. The star is where a group is joined. Propanoyl(3-(1-naphthyl)) = O=C(CCc1cccc2ccccc12)*; Propanoyl(3-indol-3-yl) = O=C(CCc1c[nH]c2ccccc12)*; d2Nal = N[C@H](Cc1ccc2ccccc2c1)C(=O)O
System: plasma LH levels
Test: Plasma LH level during and after i.v. infusion (Figures 1 and 2)
Type: in vivo
Conditions: mature castrate male rats, plot only, compound characterised in words
Excerpt: Figures 1 and 2 illustrate the effect on plasma LH levels in mature castrate male rats during and after i.v. infusion of compounds 20 and 24, respectively.

Question: Which “effect on plasma LH levels” value does the source give for `CCNC(=O)[C@@H]1CCCN1C(=O)[C@H](CCCNC(=N)N)NC(=O)[C@H](CC(C)C)NC(=O)[C@@H](Cc1ccc2ccccc2c1)NC(=O)[C@H](Cc1ccc(O)cc1)NC(=O)[C@H](CO)NC(=O)CCc1cccc2ccccc12` [compound 20] ({Propanoyl(3-(1-naphthyl))}-SY[d2Nal]LRP-NHEt) here?
Answer: LHRH antagonist

Question: `CCNC(=O)[C@@H]1CCCN1C(=O)[C@H](CCCNC(=N)N)NC(=O)[C@H](CC(C)C)NC(=O)[C@@H](Cc1c[nH]c2ccccc12)NC(=O)[C@H](Cc1ccc(O)cc1)NC(=O)[C@H](CO)NC(=O)CCc1c[nH]c2ccccc12` [compound 24, (4-9)[N-(3-(3-Indole)propionyl)-Ser⁴-D-Trp⁶-Pro⁹-NHEt] LHRH] ({Propanoyl(3-indol-3-yl)}-SY[dW]LRP-NHEt) was tested. Which “effect on plasma LH levels” value did it give?
Answer: LHRH agonist

Source: patent publication EP0328089A2, “Reduced size LHRH analogs” (ABBOTT LABORATORIES, priority 1988, dated 1989)
